Measured values reported in US20200261391A1, “METHODS OF REDUCING THE RISK OF A CARDIOVASCULAR EVENT IN A STATIN-TREATED SUBJECT BY INCREASING SERUM AND PLASMA EPA AND DPA LEVELS” (Amarin Pharmaceuticals Ireland Limited, priority 2019, published 2020).

Key:
Assay type in all cases: in vivo, human
[1] = tested on: patients with elevated triglyceride levels on statin therapy; assay: REDUCE-IT endpoints by pooled (icosapent ethyl and placebo) EPA/AA ratio tertile; settings: icosapent ethyl and placebo pooled
Text: The objective of this study is to assess the effects of administering icosapent ethyl at 4 g per day to patients from the REDUCE-IT trial of Example 1. More specifically, patients from the REDUCE-IT trial of Example 1 were stratified by their EPA levels into one of three tertiles. Following stratification, the objective was to determine if the RRR differs between patients having EPA levels in the three different tertiles. For the data collected as shown in Tables 38-43 and FIGS. 52, 53, and 56-59, the tertiles were established based on data collected from subjects at 1 year, 2 years, and last visit following icosapent ethyl administration compared to placebo. Data are presented as an average of 1 year, 2 year, […], and end of study values. The data was further analyzed use both pooled and unpooled statistically methods.
Placebo and icosapent ethyl treated subjects were pooled and stratified based on EPA/AA tertiles with […], […], and the highest […]

[2] = tested on: patients with elevated triglyceride levels on statin therapy; assay: REDUCE-IT recurrent and total ischemic events (Example 2; Andersen-Gill and Wei-Lin-Weissfeld models); settings: for total key secondary endpoint events, HR / total key secondary endpoint events, number: without adjustment for stratification differences
Text: The following study was a multi-center, placebo-controlled clinical trial the details of which are described above in Example 1, the REDUCE-IT design. […] Randomization was stratified by cardiovascular risk cohort (i.e., secondary or primary prevention), use of ezetimibe, and by geographic region.
The primary outcome for the study was total recurrent events consisting of the composite of cardiovascular death, nonfatal myocardial infarction, nonfatal stroke, coronary revascularization, or hospitalization for unstable angina. Recurrent event analyses were also performed for the key secondary endpoint, a composite of cardiovascular death, non-fatal myocardial infarction, or non-fatal stroke. For each of these composite endpoints, the effects of icosapent ethyl in the secondary and primary prevention strata were examined separately.
Demographic and baseline disease characteristics are presented using frequencies and percentages for categorical variables and medians with interquartile ranges for continuous variables. Between treatment group comparisons were derived using the chi-square test for categorical variables and Wilcoxon rank test for continuous variables. All clinical endpoint events used in the efficacy analyses were adjudicated by an independent Clinical Endpoint Committee (CEC) who were blinded to the treatment assignment. Since the primary efficacy endpoint was the time from randomization to the first occurrence of any component of the composite endpoint, and recurrence of such events within each patient is possible, a pre-specified analysis using a Cox proportional-hazard with the counting-process formulation of Andersen and Gill was performed to model the first and all recurrent cardiovascular events. Hazard ratios (HR) and corresponding 95% confidence intervals (CI) are reported from this model. In addition, as a marginal model and an extension of survival models based on the Cox proportional hazard model, the modified Wei-Lin-Weissfeld (WLW) method for analysis of recurrent events in the presence of deaths was carried out as a supportive analysis. In addition, as pre-specified, a recurrent event analysis using the Andersen-Gill and Wei-Lin-Weissfeld methods were carried out for the individual primary event components other than CV death. Though not pre-specified, additional recurrent event analyses were performed for the key secondary endpoint, which is a composite of CV death, non-fatal MI, or non-fatal stroke, and for the primary endpoint and the key secondary endpoint in the primary and secondary prevention strata to explore further the consistency of clinical benefit of icosapent ethyl. In subgroup analyses of the two cardiovascular risk strata (i.e., primary and secondary prevention), site-level discrepancies in cardiovascular risk group assignment occurring at entry and detected during the study (1.8%) were adjusted to conform with documented medical history data prior to randomization. All efficacy analyses were performed according to the intention-to-treat principle. All tests were based on a 2-sided nominal significance level of 5% with no adjustments for multiple comparisons.

[3] = REDUCE-IT change from baseline blood pressure (mixed effects model); settings: ITT
Protocol: Blood pressure was measured using a standardized process: • Patient sat for ≥5 minutes with feet flat on the floor and measurement arm supported so that the midpoint of the manometer cuff was at heart level; and • Used a mercury sphygmomanometer or automatic blood pressure device with an appropriately sized cuff with the bladder centered over the brachial artery.
Blood pressure was recorded to the nearest 2 mmHg mark on the manometer or to the nearest whole number on an automatic device. A blood pressure reading was repeated 1 to 2 minutes later, and the second reading recorded to the nearest 2 mmHg mark.
It is contemplated that a number of factors contribute to the significant reduction in the cardiovascular risk. Without intending to be bound by any particular theory, one of the contributing factors might relate to the dose and formulation of the icosapent ethyl administered to the patients, in marked contrast to previous studies of omega-3 fatty acid studies. An additional contributing factor could relate to the patients' blood pressure. […] These differences appear to be modest, but it is contemplated, that they might contribute to the benefits of icosapent ethyl. […]

[4] = highest >0.395187 vs lowest ≤0.084337
[5] = highest >0.395187 vs middle >0.084337 to ≤0.395187
[6] = middle >0.084337 to ≤0.395187 vs lowest ≤0.084337
[7] = Wei-Lin-Weissfeld model, vs placebo
[8] = per 100 patients treated for five years

**Q.** Which results are given for `CC/C=C\C/C=C\C/C=C\C/C=C\C/C=C\CCCC(=O)OCC` [icosapent ethyl, eicosapentaenoic acid ethyl ester]?
**A.** HR (95% CI), Key Secondary Endpoint, pooled EPA/AA ratio tertiles, Highest vs Lowest [1, 4]: 0.57 (0.48,0.68); HR (95% CI), Primary Endpoint, pooled EPA/AA ratio tertiles, Highest vs Lowest [1, 4]: 0.64 (0.56, 0.73); HR (95% CI), Key Secondary Endpoint, pooled EPA/AA ratio tertiles, Highest vs Middle [1, 5]: 0.75 (0.63, 0.89); HR (95% CI), Primary Endpoint, pooled EPA/AA ratio tertiles, Highest vs Middle [1, 5]: 0.84 (0.73, 0.96); HR (95% CI), Key Secondary Endpoint, pooled EPA/AA ratio tertiles, Middle vs Lowest [1, 6]: 0.76 (0.65, 0.89); HR (95% CI), Primary Endpoint, pooled EPA/AA ratio tertiles, Middle vs Lowest [1, 6]: 0.77 (0.67, 0.87); first events, reduction ([2]; Example 2): 25%; second events, reduction ([2]; Example 2): 28%; third or more events, reduction ([2]; Example 2): 50%; total events for primary composite efficacy outcome, relative risk reduction ([2]; Example 2): 32%; first occurrence of primary composite endpoint, HR [2, 7]: 0.75; second occurrence of primary composite endpoint, HR [2, 7]: 0.72; additional primary endpoint events, total reduction vs placebo (number) ([2]; in vivo): 179; first primary endpoint events, total reduction vs placebo (number) ([2]; in vivo): 196; second primary endpoint events, total reduction vs placebo (number) ([2]; in vivo): 164; total primary endpoint events, number ([2]; overall trial, placebo 1,724): 1,185; total key secondary endpoints, number ([2]; overall, placebo 861): 590; total key secondary endpoints, HR ([2]; overall, vs placebo): 0.71; cardiovascular deaths prevented [2, 8]: 1; coronary revascularizations prevented [2, 8]: 8; episodes of unstable angina prevented [2, 8]: 2; myocardial infarctions prevented [2, 8]: 4; strokes prevented [2, 8]: 1; additional primary endpoint events, number ([2]; placebo 360): 131; second primary endpoint events, number ([2]; placebo 463): 299; first primary endpoint events, number ([2]; placebo 901): 705; total key secondary endpoints, HR ([2]; primary prevention stratum): 0.71; total primary endpoint events, HR ([2]; primary prevention stratum, adjusted stratification): 0.79; total primary endpoint events, number ([2]; primary prevention stratum, adjusted stratification, placebo 256): 197; total primary endpoint events, HR ([2]; primary prevention stratum, without adjusting for stratification differences): 0.86; total primary endpoint events, number ([2]; primary prevention stratum, without adjusting for stratification differences, placebo 263): 221; total key secondary endpoint events, HR ([2]; primary prevention): 0.78; total key secondary endpoint events, number ([2]; primary prevention, placebo 142): 112; total key secondary endpoints, HR ([2]; secondary prevention stratum): 0.70; total primary endpoint events, HR ([2]; secondary prevention stratum, adjusted stratification): 0.66; total primary endpoint events, number ([2]; secondary prevention stratum, adjusted stratification, placebo 1,468): 988; total primary endpoint events, HR ([2]; secondary prevention stratum, without adjusting for stratification differences): 0.65; total primary endpoint events, number ([2]; secondary prevention stratum, without adjusting for stratification differences, placebo 1,461): 964; total key secondary endpoint events, HR ([2]; secondary prevention stratum): 0.69; total key secondary endpoint events, number ([2]; secondary prevention stratum, placebo 671): 478; total primary endpoint events, HR ([2]; vs placebo, overall trial): 0.68; diastolic blood pressure, average placebo-corrected reduction from baseline [3]: 0.5 mm Hg; systolic blood pressure, average placebo-corrected reduction from baseline [3]: 1.3 mm Hg
